Like-named read-outs stand apart in the source and are kept apart here.
Legend:
Experiment in all cases: CellTiter-Glo, NCI60 panel
Type in all cases: cell-based
A498 = details: Renal; for GI50: Homo sapiens
In short: (§1)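 Luminescent ATP signal, correlated with viable cell number, served as read-out. Before that: cells seeded (adherent ones allowed 24 h to attach), compound added from DMSO dilutions, 48 h incubation at 37° C. The concentration yielding 50% less growth is reported.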

BT-549 = details: Breast; for GI50: Homo sapiens
In short: as §1

EKVX = details: NSCL; for GI50: Homo sapiens
In short: as §1

HCC-2998 = details: Colon; for GI50: Homo sapiens
In short: as §1

HOP-92 = details: NSCL; for GI50: Homo sapiens
In short: as §1

KM12 = details: Colon; for GI50: Homo sapiens
In short: as §1

LOX IMVI = details: Melanoma; for GI50: Homo sapiens
In short: as §1

M14 = details: Melanoma; for GI50: Homo sapiens
In short: as §1

NCI-H322M = details: NSCL; for GI50: Homo sapiens
In short: as §1

OVCAR-3 = details: Ovarian; for GI50: Homo sapiens
In short: as §1

OVCAR-8 = details: Ovarian; for GI50: Homo sapiens
In short: as §1

PC-3 = details: Prostate; for GI50: Homo sapiens
In short: as §1

RPMI-8226 = details: Leukemia; for GI50: Homo sapiens
In short: as §1

SF-295 = details: CNS; for GI50: Homo sapiens
In short: as §1

SF-539 = details: CNS; for GI50: Homo sapiens
In short: as §1

UO-31 = details: Renal; for GI50: Homo sapiens
In short: as §1

[1] = GI50 in nM, read-out: Log(GI50) (converted)

**Q.** Which GI50 (A498; [1]) does the source give for `CC(C)(C)[C@H](c1nc(-c2cc(F)ccc2F)cn1Cc1ccccc1)N(CC[C@H](N)CF)C(=O)CO` [Compound IIa] here?
**A.** The GI50 was 10 nM.

**Q.** What about the GI50 (A498; read-out: GI50) of the same compound?
**A.** The GI50 was 10 nM.

**Q.** And the “Differential vs mean Log(GI50)” value (A498)?
**A.** The value was −0.669.

**Q.** What about the “Differential vs mean Log(GI50)” value (BT-549) of the same compound?
**A.** The value was 0.423.

**Q.** And the GI50 (BT-549; [1])?
**A.** The GI50 was 0.809 nM.

**Q.** What about the GI50 (BT-549; read-out: GI50) of the same compound?
**A.** The GI50 was 0.809 nM.

**Q.** What about the GI50 (EKVX; [1]) of the same compound?
**A.** The GI50 was 10 nM.

**Q.** And the GI50 (EKVX; read-out: GI50)?
**A.** Its GI50 is 10 nM.

**Q.** What about the “Differential vs mean Log(GI50)” value (EKVX) of the same compound?
**A.** Its value is −0.669.

**Q.** What about the “Differential vs mean Log(GI50)” value (HCC-2998) of the same compound?
**A.** The value was 0.547.

**Q.** What about the GI50 (HCC-2998; [1]) of the same compound?
**A.** Its GI50 is 0.608 nM.

**Q.** What about the GI50 (HCC-2998; read-out: GI50) of the same compound?
**A.** Its GI50 is 0.608 nM.

**Q.** What about the GI50 (HOP-92; [1]) of the same compound?
**A.** The GI50 was 10 nM.

**Q.** And the GI50 (HOP-92; read-out: GI50)?
**A.** Its GI50 is 10 nM.

**Q.** What about the “Differential vs mean Log(GI50)” value (HOP-92) of the same compound?
**A.** Its value is −0.669.

**Q.** What about the “Differential vs mean Log(GI50)” value (KM12) of the same compound?
**A.** Its value is 0.705.

**Q.** What about the GI50 (KM12; [1]) of the same compound?
**A.** The GI50 was 0.423 nM.

**Q.** What about the GI50 (KM12; read-out: GI50) of the same compound?
**A.** The GI50 was 0.423 nM.

**Q.** And the GI50 (LOX IMVI; [1])?
**A.** The GI50 was 10 nM.

**Q.** What about the GI50 (LOX IMVI; read-out: GI50) of the same compound?
**A.** Its GI50 is 10 nM.

**Q.** What about the “Differential vs mean Log(GI50)” value (LOX IMVI) of the same compound?
**A.** The value was −0.669.

**Q.** And the GI50 (M14; [1])?
**A.** Its GI50 is 0.209 nM.

**Q.** What about the GI50 (M14; read-out: GI50) of the same compound?
**A.** Its GI50 is 0.209 nM.

**Q.** And the “Differential vs mean Log(GI50)” value (M14)?
**A.** Its value is 1.011.

**Q.** And the GI50 (NCI-H322M; [1])?
**A.** The GI50 was 10 nM.

**Q.** And the GI50 (NCI-H322M; read-out: GI50)?
**A.** The GI50 was 10 nM.

**Q.** What about the “Differential vs mean Log(GI50)” value (NCI-H322M) of the same compound?
**A.** Its value is −0.669.

**Q.** What about the GI50 (OVCAR-3; [1]) of the same compound?
**A.** Its GI50 is 10 nM.

**Q.** What about the GI50 (OVCAR-3; read-out: GI50) of the same compound?
**A.** The GI50 was 10 nM.

**Q.** And the “Differential vs mean Log(GI50)” value (OVCAR-3)?
**A.** The value was −0.669.

**Q.** And the GI50 (OVCAR-8; [1])?
**A.** The GI50 was 0.324 nM.

**Q.** What about the GI50 (OVCAR-8; read-out: GI50) of the same compound?
**A.** Its GI50 is 0.324 nM.

**Q.** And the “Differential vs mean Log(GI50)” value (OVCAR-8)?
**A.** Its value is 0.821.

**Q.** And the GI50 (PC-3; [1])?
**A.** Its GI50 is 10 nM.

**Q.** What about the GI50 (PC-3; read-out: GI50) of the same compound?
**A.** Its GI50 is 10 nM.

**Q.** And the “Differential vs mean Log(GI50)” value (PC-3)?
**A.** The value was −0.669.

**Q.** What about the GI50 (RPMI-8226; [1]) of the same compound?
**A.** Its GI50 is 0.351 nM.

**Q.** And the GI50 (RPMI-8226; read-out: GI50)?
**A.** The GI50 was 0.351 nM.

**Q.** What about the “Differential vs mean Log(GI50)” value (RPMI-8226) of the same compound?
**A.** Its value is 0.786.

**Q.** What about the “Differential vs mean Log(GI50)” value (SF-295) of the same compound?
**A.** The value was 1.122.

**Q.** What about the GI50 (SF-295; [1]) of the same compound?
**A.** Its GI50 is 0.162 nM.

**Q.** What about the GI50 (SF-295; read-out: GI50) of the same compound?
**A.** The GI50 was 0.162 nM.

**Q.** And the “Differential vs mean Log(GI50)” value (SF-539)?
**A.** The value was 0.743.

**Q.** What about the GI50 (SF-539; [1]) of the same compound?
**A.** Its GI50 is 0.387 nM.

**Q.** What about the GI50 (SF-539; read-out: GI50) of the same compound?
**A.** Its GI50 is 0.387 nM.

**Q.** What about the GI50 (UO-31; [1]) of the same compound?
**A.** The GI50 was 10 nM.

**Q.** And the GI50 (UO-31; read-out: GI50)?
**A.** Its GI50 is 10 nM.

**Q.** What about the “Differential vs mean Log(GI50)” value (UO-31) of the same compound?
**A.** Its value is −0.669.

Reference: US8252832B2, “Kinesin inhibitors as cancer therapeutics” (Novartis AG, priority 2007, dated 2012)
